Measured values taken from patent US7799319B2, “Method for measuring skin absorbability” (Shiseido Company, Ltd., priority 2000, dated 2010).
Where two headings read alike, the source gives them in different places.

Legend:
[1] = Measurement method 1-1: in vitro skin-pore absorption into hair follicles and skin tissue; type: in vitro ADME, miniature pig
Excerpt: In measurement method 1-1, the skin of a model animal or the skin reconstructed from skin cells may be employed as a skin model. The model animal from which the skin is taken is not particularly limited, and pig, human, cattle, mouse, or rat are all potential donors. In measurement method 1-1, the skin of a hairy animal is usually employed in order to evaluate the penetrability of a drug through skin pores into hair follicles. Therefore, a mutated hairless animal is usually unsuitable for the model animal. […] Therefore, other than human, pig is preferably employed as a model animal.
The skin is not particularly limited, so long as the skin satisfies the above condition. For example, as described below in the Example, a skin model may be fixed onto a collagen gel.
The conditions for the application of the substance may be arbitrarily determined in accordance with the type of the substance or the object. Usually, the skin to which the substance is applied is incubated at about 37° C. (near the temperature of the human body) over a predetermined time period. The incubation time varies with the intended product form of the substance.
The portion at which the delivery amount of the substance is measured is limited to the region corresponding to the dermis of the skin, since in the region corresponding to the stratum corneum or epidermis of the skin, the hair follicle may be contaminated with epidermal tissue debris or excretions from the sebaceous glands, and thus the exact delivery amount of the substance is difficult to measure.
The method for measuring the delivery amount of the substance is not particularly limited. For example, liquid chromatography (including high-performance liquid chromatography), a fluorescent antibody technique using a fluorescence-labeled antibody, mass spectrometry, or a method using a radioisotope may be employed. Of these, liquid chromatography is preferable, in consideration of convenience.
In the evaluation test, 0.5% pantothenyl ethylether (90% ethanol product) was employed as a substance to be tested, and the skin of a miniature pig (Yucatan Micropig Skin Set: product of Charles River) was employed as a skin model.
The test sample (20 μl) was applied onto the skin sample comprising skin pores 14. The substance was applied onto a region (diameter: 1.5 cm) of the sample; i.e., within an assay ring to which silicon grease was applied. The resultant skin sample 10 was allowed to stand at 37° C. for 16 hours. After having being washed, the sample 10 was separated into the stratum corneum 11, the epidermis 12, and the dermis 13. Subsequently, hair follicles 15 were removed from the dermis 13, and the amount of pantothenyl ethylether contained in the follicles was measured, as a delivery amount per unit weight of the hair follicle, by means of liquid chromatography (NANOSPACE (product of Shiseido Co., Ltd.), eluent: (CH3CN:H2O=3:7), detection wavelength: 210 nm).
The skin sample 10 of the miniature pig was derived from the upper back and lower back (n=3).

[2] = in vivo
Protocol: (§1) (2) an in vivo quantification method (hereinafter referred to as “measurement method 1-2”) in which the amount of a substance (e.g., a drug) which is penetrated into the hair follicle is determined by applying the substance to the human scalp, removing the hair follicle from the scalp, and measuring the concentration of the substance which is delivered to the hair follicle.
(§2) In measurement method 1-2, a method for the application of a substance such as a drug to the human scalp may be arbitrarily determined in accordance with the characteristics or the intended product form of the substance.
(§3) After the substance is applied to a person participating in the test, several hair strands from the person are removed, and the thus-obtained hair follicles may be stored as hair shafts and/or outer root sheaths. The amount of the substance which is delivered to the subcutaneous portion of the hair shaft and/or the outer root sheath is measured, and the thus-obtained delivery amount of the substance may be employed as an index of the skin-pore absorbability of the substance.
(§4) The delivery amount of the substance may be measured in a manner similar to that of measurement method 1-1.
(§5) Thirty male panelists were enrolled in the test. […] Each of the test samples (0.5 ml for each) was applied to the scalp (area: 1 cm^2) of each male panelist, and then the scalp was left for 16 hours. […]

[3] = Measurement method 1-2: in vivo skin-pore absorption, human scalp hair follicles; details: 5% isostearyl alcohol, 1% pantothenyl ethylether, 0.5 ml on scalp, 16 hours, vs control, FIG. 8
Protocol: as §1, §2, §3, §4, §5

[4] = Measurement method 2: sebum transferability through keratinized silicone film into artificial sebum (Franz cell kit); type: in vitro ADME; details: 5% isostearyl alcohol, 2% minoxidil composition, 20 μl, 37° C., 24 hours, FIG. 12
Excerpt: The present invention also provides a method for the measurement of skin absorbability of a substance (hereinafter the method will be referred to as “measurement method 2”), which comprises bringing a substance into contact with a first surface of a film that mimics the skin surface layer, a second surface of the film being brought into contact with artificial sebum; and using the degree of transfer of the substance to the artificial sebum as an index, to thereby evaluate the sebum transferability of the substance.
The sebum transferability of a substance may be evaluated through the following procedure: the substance is applied to the stratum corneum side of the thin film, the opposite side of the stratum corneum side being brought into contact with the artificial sebum; the degree of transfer of the substance to the artificial sebum, for example, the amount of the substance transferred to the sebum per unit time, i.e., the amount of the substance contained in the sebum is measured; and the amount of the substance in the sebum is employed as an index, to thereby evaluate the sebum transferability of the substance.
1. […]
The test was carried out under the aforementioned conditions. […] The degree of transfer of minoxidil to the artificial sebum was evaluated on the basis of the concentration of minoxidil contained in the sebum after the elapse of a specified time period. […]

| skin-pore absorption of pantothenyl ethylether ([1]; 1% terpene refreshing agent, 0.5% pantothenyl ethylether, vs control, FIGS. 11A and 11B) | skin-pore absorption of pantothenyl ethylether [2] | skin-pore absorption of minoxidil (concentration delivered to the hair follicles) ([1]; 5% isostearyl alcohol compared with 5% amine oxide composition, 0.5% minoxidil, FIG. 9B) | skin-pore absorption of β-glycyrrhetinic acid (concentration delivered to the hair follicles) ([1]; 5% isostearyl alcohol compared with 5% amine oxide composition, 0.5% β-glycyrrhetinic acid, FIG. 9A) | concentration of pantothenyl ethylether delivered to hair follicles ([1]; 5% isostearyl alcohol composition vs control, 0.5% pantothenyl ethylether, 20 μl, 37° C., 16 hours, FIG. 4) | concentration of pantothenyl ethylether delivered to the stratum corneum ([1]; 5% isostearyl alcohol composition vs control, FIG. 5A) | concentration of pantothenyl ethylether delivered to the epidermis ([1]; 5% isostearyl alcohol composition vs control, FIG. 5B) | concentration of pantothenyl ethylether delivered to the dermis ([1]; 5% isostearyl alcohol composition vs control, FIG. 5C) | concentration of pantothenyl ethylether delivered to the hair follicles (hair shafts and outer root sheaths) [3] | sebum transferability of minoxidil (concentration of minoxidil in the artificial sebum) [4] | Structure (SMILES) |
| --- | --- | --- | --- | --- | --- | --- | --- | --- | --- | --- |
| accelerates | accelerates |  |  |  |  |  |  |  |  | CC12CCC(CC1=O)C2(C)C (stereo not shown) [camphor] |
|  |  | accelerates | accelerates | increases significantly | decreased | decreased | slightly increased | increases | enhances | CC(C)CCCCCCCCCCCCCCCO [isostearyl alcohol] |
